In publication PMC9233675, “Ru(II) photocages enable precise control over enzyme activity with red light” (Nature Communications, 2022):
Positions count from the first letter of the chain named.

Experiments:
CYP1B1 S269A = molecular target: T1, CYP1B1 S269A (Homo sapiens, UniProt Q16678, S269A)
T1 sequence (Q16678 1-543 S269A): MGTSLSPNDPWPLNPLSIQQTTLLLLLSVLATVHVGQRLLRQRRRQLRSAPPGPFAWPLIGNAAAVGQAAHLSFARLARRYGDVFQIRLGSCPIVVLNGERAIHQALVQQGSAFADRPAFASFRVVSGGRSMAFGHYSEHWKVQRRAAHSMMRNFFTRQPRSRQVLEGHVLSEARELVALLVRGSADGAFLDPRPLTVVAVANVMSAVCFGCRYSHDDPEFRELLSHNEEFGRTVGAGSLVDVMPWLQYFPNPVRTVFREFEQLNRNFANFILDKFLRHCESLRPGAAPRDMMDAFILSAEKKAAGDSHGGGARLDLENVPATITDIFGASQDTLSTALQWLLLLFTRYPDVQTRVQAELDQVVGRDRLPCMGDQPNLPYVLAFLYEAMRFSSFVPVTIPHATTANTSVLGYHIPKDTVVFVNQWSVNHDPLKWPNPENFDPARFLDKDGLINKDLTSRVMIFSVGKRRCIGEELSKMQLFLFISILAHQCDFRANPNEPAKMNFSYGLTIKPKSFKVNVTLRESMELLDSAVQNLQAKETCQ
Source text: (§1) Site directed mutagenesis was used to probe the importance of specific active-site contacts identified through the structural assessment (Fig. 3a, b) and simulations. In all cases, conservative mutations were made to maintain polar or hydrophobic character and approximate size. The aromatic residues that frame the inhibitor binding site, Phe143 and Phe231, were mutated to Leu to determine the importance of the π interactions. In addition, the Ser127 residue, located in the upper corner of the active site on the B-C loop, was chosen for mutation based on the simulations. This amino acid transiently contacts the inhibitors, but also forms a hydrogen bond with Asp326 of the I-helix, and thus may impact the position of this helix with regards to the B-C loop. […] Rather than directly mutating these residues in the I-helix, neighboring residues Gln332 and Asp333 were targeted, with the hope of interrupting amino acid interactions that position the helix within the active site.
(§2) The ratio of IC50 values for the WT vs. the mutant are shown in Fig. 3c and reflects the importance of the specific contact; the log of the value is used to aid in visualization.
(§3) Cell lines were seeded onto Geltrex coated 96-well plates at 40,000 cells/well, and grown overnight in DMEM media containing 1 μg/mL tetracycline. The media was then replaced with Opti-MEM supplemented with 2% FBS and 1 μg/mL tetracycline. Compounds were serially diluted in Opti-MEM supplemented with 2% FBS and 1 μg/mL tetracycline and an equal volume of compound added to the cells (n = 3). Following a 1 h incubation, resorufin ethyl ether (REE; for CYP1B1 and 1A1) or dibenzylfluorescein (DBF; for 19A1) was added to the cells for a total concentration of 5 μM for REE and 1 μM for DBF. […] Dose–response curves were generated in Prism and normalized using the no-compound control (set as 100% activity) and the no-cell control (set as 0% activity; this value in the raw data reflects the background fluorescence of the dye alone).

CYP1B1 Q332E = molecular target: T2, CYP1B1 Q332E (Homo sapiens, UniProt Q16678, Q332E)
T2 sequence (Q16678 1-543 Q332E): T1 sequence (Q16678 1-543 S269A) with A269S, Q332E
Source text: as §1, §2, §3

CYP1B1 S127A = molecular target: T3, CYP1B1 S127A (Homo sapiens, UniProt Q16678, S127A)
T3 sequence (Q16678 1-543 S127A): T1 sequence (Q16678 1-543 S269A) with S127A, A269S
Source text: as §1, §2, §3

CYP1B1 F134L = molecular target: T4, CYP1B1 F134L (Homo sapiens, UniProt Q16678, F134L)
T4 sequence (Q16678 1-543 F134L): T1 sequence (Q16678 1-543 S269A) with F134L, A269S
Source text: as §1, §2, §3

CYP1B1 D333N = molecular target: T5, CYP1B1 D333N (Homo sapiens, UniProt Q16678, D333N)
T5 sequence (Q16678 1-543 D333N): T1 sequence (Q16678 1-543 S269A) with A269S, D333N
Source text: as §1, §2, §3

Which results are given for `O=c1cc(-c2ccccc2)oc2c1ccc1ccccc12` [ANF, α-naphthoflavone]?
logSI S269A (CYP1B1 S269A): 0; logSI Q332E (CYP1B1 Q332E): 0.906; logSI S127A (CYP1B1 S127A): -1.15; logSI F134L (CYP1B1 F134L): -0.301; logSI D333N (CYP1B1 D333N): 1.497
